According to patent US11512128B2, “VEGF/DLL4 binding agents and uses thereof” (MEREO BIOPHARMA 5, INC., priority 2011, dated 2022):

Key:
[1] = test system: OMP-PN8 pancreatic tumor cells; assay: Tumorigenicity of OMP-PN8 pancreatic tumor cells after treatment (serial transplantation); format: in vivo, NOD/SCID mice; settings: 90 cells from treated tumors transplanted, day 55, no treatment; 21M18, bevacizumab 15 mg/kg, bispecifics 30 mg/kg, gemcitabine 70 mg/kg, four weeks
Description: FIG. 6. Tumorigenicity of pancreatic tumor cells after treatment with anti-VEGF/anti-DLL4 bispecific antibodies. OMP-PN8 tumor cells from mice treated with control antibody, anti-hDLL4 antibody 21M18, anti-VEGF antibody bevacizumab, or anti-VEGF/anti-DLL4 bispecific antibodies 219R45-MB-21M18 or 219R45-MB-21R79 with or without gemcitabine were processed to single cell suspensions, and serially transplanted into mice. 90 cells from each treatment group were injected subcutaneously into NOD/SCID mice. Tumors were allowed to grow with no treatment. Data is shown as tumor volume (mm^3) on day 55. Tumor frequency is shown as number of tumors over total number of mice injected in each group.
Mice bearing OMP-PN8 pancreatic tumors were treated with control antibody (15 mg/kg), anti-hDLL4 antibody 21M18 (15 mg/kg), anti-VEGF antibody bevacizumab (15 mg/kg), or anti-VEGF/anti-DLL4 bispecific antibodies 219R45-MB-21M18 or 219R45-MB-21R79 (30 mg/kg) with or without gemcitabine (70 mg/kg). Following four weeks of treatment, tumors were harvested, processed to single cell suspensions and the human tumor cells were purified by immunomagnetic depletion of murine cells. 90 human tumor cells from each treatment group were transferred to a new cohort of mice (n=10 mice/group). Tumors were allowed to grow for 55 days without any treatment and tumor volumes were measured with electronic calipers.

[2] = test system: OMP-C8 colon tumor; assay: Tumorigenicity of OMP-C8 colon tumors after treatment (serial transplantation); format: in vivo, NOD/SCID mice; settings: 150 cells from treated tumors transplanted, day 68; without irinotecan combination
Description: FIG. 10. Tumorigenicity of […] colon tumor cells after treatment with anti-VEGF/anti-DLL4 bispecific antibodies. Tumors from mice treated with control antibody, anti-hDLL4 antibody 21M18, anti-VEGF antibody bevacizumab, a combination of 21M18 and bevacizumab, or anti-VEGF/anti-DLL4 bispecific antibodies 219R45-MB-21M18 or 219R45-MB-21R79 with or without irinotecan were processed to single cell suspensions, and serially transplanted into mice. 150 cells from each treatment group were injected subcutaneously into NOD/SCID mice. Tumors were allowed to grow with no treatment. Data are shown as tumor volume (mm^3) on day 68.
Single cell suspensions of OMP-C8 colon tumor xenografts (20,000 cells) were injected subcutaneously into the flanks of 6-8 week old NOD/SCID mice. Tumors were allowed to grow for 33 days until they reached an average volume of 300 mm^3. The mice were randomized (n=5 per group) and treated with anti-DLL4 antibody 21M18, anti-VEGF antibody bevacizumab, a combination of antibodies 21M18 and bevacizumab, anti-VEGF/anti-DLL4 bispecific antibody 219R45-MB-21M18, anti-VEGF/anti-DLL4 bispecific antibody 219R45-MB-21R79, or control antibody, either in combination with irinotecan or without irinotecan. Antibodies and irinotecan were dosed weekly by injection into the intraperitoneal cavity. Antibodies 21M18 and bevacizumab were dosed at 7.5 mg/kg, bispecific antibodies 219R45-MB-21M18 and 219R45-MB-21R79 were dosed at 15 mg/kg, and irinotecan was dosed at 45 mg/kg. Tumors were harvested after 4 weeks, processed into single cell suspensions, and the human tumor cells were isolated. 150 tumor cells from each experimental group were injected subcutaneously into a new cohort of mice (n=10 per group) and tumors were allowed to grow without treatment. Tumor growth was monitored and tumor volumes were measured with electronic calipers.

[3] = test system: OMP-C8 colon tumor cells; assay: Tumor growth in human skin graft model; format: in vivo, NOD-SCID mice; settings: 25 mg/kg intraperitoneally once a week
Description: FIG. 5. Inhibition of colon tumor growth in vivo by an anti-VEGF/anti-DLL4 bispecific antibody. OMP-C8 colon tumor cells were injected subcutaneously into a human skin graft in NOD/SCID mice. Mice were treated with control antibody (-▪-), anti-hDLL4 antibody 21M18 (-▴-), anti-VEGF antibody bevacizumab (-∘-), or anti-VEGF/anti-DLL4 bispecific antibody 219R45-MB-21M18 (-▾-). Data is shown as tumor volume (photons/sec) over days post-treatment. Antibodies were administered intraperitoneally at a dose of 25 mg/kg once a week.
A human skin graft model has been reported which comprises a human skin graft and human tumor cells. A human skin graft is established and then human tumor cells are implanted into the skin graft, allowing the tumor cells to grow in an environment with human stroma and vasculature (Tahtis et al., 2003, Mol. Cancer Ther. 2:[…]). Human skin samples were obtained from neonatal foreskin tissue and grafted onto the lateral flank of NOD-SCID mice. After establishment of the skin graft, luciferase-labeled OMP-C8 colon tumor cells (20,000 cells) were injected intradermally into the human skin. Tumor growth was monitored by bioluminescence imaging using an IVIS imaging system (Caliper Life Sciences, Mountain View, Calif.). Tumors were allowed to grow until they reached 1.2×10^6 photons per second. Tumor-bearing mice (n=6 mice/group) were randomized and treated with control Ab, anti-hDLL4 antibody 21M18, anti-VEGF antibody bevacizumab, or anti-VEGF/anti-DLL4 bispecific antibody 219R45-MB-21M18. Animals were treated once a week and antibodies were administered intraperitoneally at a dose of 25 mg/kg. Tumor growth was monitored by bioluminescence imaging on the indicated days.

[4] = test system: OMP-C8 colon tumor; assay: OMP-C8 colon tumor growth in vivo; parameters: species or system NOD/SCID mice
Description: FIGS. 11A and 11B. Inhibition of colon tumor growth in vivo by anti-VEGF/anti-DLL4 bispecific antibodies. OMP-C8 colon tumor cells were injected subcutaneously into NOD/SCID mice. Mice were treated with control antibody (-▪-), anti-VEGF antibody bevacizumab (-▴-), or anti-VEGF/anti-DLL4 bispecific antibodies 219R45-MB-21M18 (-⋄-), 219R45-MB-21R75 (-●-), 219R45-MB-21R79 (-∘-), or 219R45-MB-21R83 (-▾-). Mice were treated with antibodies as single agents (FIG. 11A) or in combination with irinotecan (FIG. 11B). Antibodies were administered intraperitoneally at a dose of 15 mg/kg once a week and irinotecan at a dose of 7.5 mg/kg one a week. Data are shown as tumor volume (mm^3) over days post-treatment.
Single cell suspensions of OMP-C8 colon tumor xenografts (50,000 cells) were injected subcutaneously into the flanks of 6-8 week old NOD/SCID mice. Tumors were allowed to grow for 21 days until they reached an average volume of 80 mm^3. The mice were randomized (n=8 per group) and treated with anti-DLL4 antibody 21M18, anti-VEGF antibody bevacizumab, anti-VEGF/anti-DLL4 bispecific antibodies 219R45-MB-21M18, 219R45-MB-21R75, 219R45-MB-21R79, 219R45-MB-21R83, or control antibody, either alone or in combination with irinotecan. Antibodies and irinotecan were dosed weekly by injection into the intraperitoneal cavity. Bevacizumab and bispecific antibodies 219R45-MB-21M18, 219R45-MB-21R75, 219R45-MB-21R79, and 219R45-MB-21R83 were dosed at 15 mg/kg, and irinotecan was dosed at 7.5 mg/kg. Tumor growth was monitored and tumor volumes were measured with electronic calipers at the indicated time points. Data are expressed as mean±S.E.M.
Following the treatment phase, tumor sections were prepared and analyzed by hematoxylin and eosin (H&E) staining. […] This is characteristic of highly necrotic tumor tissue.

| Molecule | tumor growth frequency (mice with tumors) [1] | tumor growth frequency, single agents [2] | inhibition of tumor growth (bioluminescence) [3] | inhibition of tumor growth in combination with irinotecan ([4]; antibody 15 mg/kg, irinotecan 7.5 mg/kg weekly ip) | H&E staining of tumor sections after treatment ([4]; in combination with irinotecan) |
| --- | --- | --- | --- | --- | --- |
| Nc1ccn([C@@H]2O[C@H](CO)[C@@H](O)C2(F)F)c(=O)n1 [gemcitabine, reference compound] | 10 out of 10 |  |  |  |  |
| CCc1c2c(nc3ccc(OC(=O)N4CCC(N5CCCCC5)CC4)cc13)-c1cc3c(c(=O)n1C2)COC(=O)[C@]3(O)CC [irinotecan, reference compound] |  | reduced tumor growth frequency |  |  |  |
| bevacizumab [reference compound] | 10 out of 10 | had no effect on tumor growth frequency | inhibited tumor growth |  |  |
| 219R45-MB-21R83: anti-VEGF/anti-DLL4 monovalent/bispecific antibody, heavy chains SEQ ID NO:7 and 62, light chains SEQ ID NO:8 (antibody, 21R79 Heavy chain without predicted signal sequence; 21R83 Heavy chain without signal sequence; Light chain without predicted signal sequence) heavy 1: QVQLVQSGAEVKKPGASVKVSCKASGYTFTNYWMHWVRQAPGQGLEWMGDINPSNGRTSYKEKFKRRVTLSVDKSSSTAYMELSSLRSEDTAVYFCTIHYDDKYYPLMDYWGQGTLVTVSSASTKGPSVFPLAPCSRSTSESTAALGCLVKDYFPEPVTVSWNSGALTSGVHTFPAVLQSSGLYSLSSVVTVPSSNFGTQTYTCNVDHKPSNTKVDKTVERKCCVECPPCPAPPVAGPSVFLFPPKPKDTLMISRTPEVTCVVVDVSHEDPEVQFNWYVDGVEVHNAKTKPREEQFNSTFRVVSVLTVVHQDWLNGKEYKCKVSNKGLPAPIEKTISKTKGQPREPQVYTLPPSREKMTKNQVSLTCLVKGFYPSDIAVEWESNGQPENNYKTTPPMLKSDGSFFLYSKLTVDKSRWQQGNVFSCSVMHEALHNHYTQKSLSLSPGK heavy 2: QVQLVQSGAEVKKPGASVKISCKASGYSFTAYYIHWVKQAPGQGLEWIGYISNYNRATNYNQKFKGRVTFTTDTSTSTAYMELRSLRSDDTAVYYCARDYDYDVGMDYWGQGTLVTVSSASTKGPSVFPLAPCSRSTSESTAALGCLVKDYFPEPVTVSWNSGALTSGVHTFPAVLQSSGLYSLSSVVTVPSSNFGTQTYTCNVDHKPSNTKVDKTVERKCCVECPPCPAPPVAGPSVFLFPPKPKDTLMISRTPEVTCVVVDVSHEDPEVQFNWYVDGVEVHNAKTKPREEQFNSTFRVVSVLTVVHQDWLNGKEYKCKVSNKGLPAPIEKTISKTKGQPREPQVYTLPPSREEMTKNQVSLTCLVEGFYPSDIAVEWESNGQPENNYKTTPPMLDSDGSFFLYSELTVDKSRWQQGNVFSCSVMHEALHNHYTQKSLSLSPGK light: DIVMTQSPDSLAVSLGERATISCRASESVDNYGISFMKWFQQKPGQPPKLLIYAASNQGSGVPDRFSGSGSGTDFTLTISSLQAEDVAVYYCQQSKEVPWTFGGGTKVEIKRTVAAPSVIFPPSDEQLKSGTASVVCLLNNFYPREAKVQWKVDNALQSGNSQESVTEQDSKDSTYSLSSTLTLSKADYEKHKVYACEVTHQGLSSPVTKSFNRGEC |  |  |  | greatest inhibition of tumor growth | dark pink staining regions providing evidence of extensive calcification |
